# US5814666A, “Encapsulated and non-encapsulated nitric oxide generators used as antimicrobial agents” (The United States as represented by the Department of …, priority 1995, dated 1998)
# Counter-ions that a name gives are not always drawn. Like-named read-outs stand apart in the source and are kept apart here.
# What was measured:
# [1] = Half-life of nitric oxide generators at pH 7.4 and 37° C. (Table 1)
# Francisella tularensis [2] = type: in vivo, mice
# Leishmania major [3] = assay: Blocking Leishmania major growth in vitro compared with glucantime; type: cell-based; settings: equivalent molar concentrations of NONOates and glucantime
# Plasmodium falciparum = assay: Anti-malaria in vitro screen, overall result; settings: in words
# [4] = tested on: P. falciparum clone CDC/Indochina III (W2); assay: Anti-malaria in vitro screen, P. falciparum clone W2; settings: Plasmodium falciparum
# [5] = tested on: P. falciparum clone CDC/Sierra Leone I (D6); assay: Anti-malaria in vitro screen, P. falciparum clone D6; settings: Plasmodium falciparum
# [6] = pH 7.4
# Candida albicans = assay: microbe, parasite or virus in culture; type: cell-based; settings: read-out: IC50 (growth inhibition)
# Francisella tularensis [7] = assay: microbe, parasite or virus in culture; type: cell-based; settings: read-out: IC50 (growth inhibition)
# Leishmania major [8] = assay: microbe, parasite or virus in culture; type: cell-based; settings: read-out: IC50 (growth inhibition)
# macrophages = assay: NO2^- / NO release by macrophages after exposure to liposome-encapsulated or non-encapsulated NONOates (Table 8); settings: non-encapsulated; 50 μM, 1 hr incubation, culture medium after 24 hrs
# physchem = settings: pH 7.4
# [9] = Stability of nitric oxide generators in PBS at room temperature, absorbance (Table 5); settings: for Initial Abs. / 24-hour Abs.: PBS, at peak wavelength; for Initial Abs.: immediately; for 24-hour Abs.: room temperature; for degraded at 24 h: pbs
# [10] = in words; cited from earlier work
# DNA synthesis = settings: in words; cited from earlier work
# tumor cells = tumor cells in vitro; in words; cited from earlier work
# [11] = tested on: Mycobacterium tuberculosis; settings: direct delivery; in words; cited from earlier work
# [12] = pH 7.4, 37° C., result in words
# [13] = experiment #1, IP 200 μM two days after inoculation
compound,measurement,setting,value
C=CCON=[N+]([O-])NC(C)C [A-IPA/NO],Half-life,[1]; [12],stable
C=CON=[N+]([O-])N(CC)CC [V-DEA/NO],Half-life,[1]; [12],stable
CCOC(=O)CON=[N+]([O-])NC(C)C [CEM-IPA/NO],Half-life,[1]; [12],stable
CCN(CC)[N+]([O-])=NOCCO [HE-DEA/NO],Half-life,[1]; [12],stable
CCN(CC)[N+]([O-])=NOCC(C)O (stereo not drawn) [HP-DEA/NO],Half-life,[1]; [12],stable
C=CCON=[N+]([O-])N(CC)CC [A-DEA/NO],Half-life,[1]; [12],stable
CCN(CC)[N+]([O-])=NOCOC [MOM-DEA/NO],#Dead/Total,Francisella tularensis [2]; [13],1/5
same,% Protected,Francisella tularensis [2]; [13],80%
same,#Dead/Total,"Francisella tularensis [2]; experiment #2, IP 200 μM two days after inoculation",1/5
same,% Protected,"Francisella tularensis [2]; experiment #2, IP 200 μM, control 40% protected",80%
same,anti-microbial effects,"Francisella tularensis [2]; two subsequent experiments, in words",not found to be significant in two subsequent experiments
same,Half-life,[1]; pH 7.4,7200 min
CCN(CC)[N+]([O-])=NOCOC(C)=O [acetoxy-DEA/NO],#Dead/Total,Francisella tularensis [2]; [13],2/4
same,% Protected,Francisella tularensis [2]; [13],50%
same,times more effective than glucantime at blocking Leishmania major growth,Leishmania major [3],8.9 times
same,anti-malarial effectiveness,Plasmodium falciparum,effective
same,IC50,[4],17.7 µg/mL
same,IC90,[4],19.2 µg/mL
same,IC50,[5],0.267 µg/mL
same,IC90,[5],0.295 µg/mL
same,Half-life,[1]; [12],stable
CCCON=[N+]([O-])N(CC)CC [P-DEA/NO],Half-life,[1]; [12],stable
N.N.O=S(=O)(O)[N+]([O-])=NO [SULFI/NO],Half-life,[6],7 min
NCCN(CCN)[N+]([O-])=NO [DETA/NO],IC50,Candida albicans,< 100 µM
same,IC50,Francisella tularensis [7],< 100 µM
same,IC50,Leishmania major [8],< 10000 µM
same,times more effective than glucantime at blocking Leishmania major growth,Leishmania major [3],7.2 times
same,IC50,[4],0.037 µg/mL
same,IC90,[4],0.094 µg/mL
same,IC50,[5],4.83 µg/mL
same,IC90,[5],10.1 µg/mL
same,NO2 --(nmol/ml),macrophages,0 nmol/mL
"[Na+].[Na+].[O-][N+]([O-])=NO [OXI/NO, sodium trioxodinitrate(II) monohydrate]",Half-life,"[1]; pH 7.4, 37° C.",2 min
"CCN(CC)[N+]([O-])=NO [DEA/NO, diethylamine-bis(nitric oxide) adduct sodium salt]",#Dead/Total,Francisella tularensis [2]; [13],5/5
same,% Protected,Francisella tularensis [2]; [13],0%
same,Half-life,[1]; pH 7.4,2 min
"NCCCNCCCCN(CCCN)[N+]([O-])=NO [SPER/NO, spermine-bis(nitric oxide) adduct monohydrate]",IC50,Candida albicans,< 100 µM
same,IC50,Francisella tularensis [7],< 10 µM
same,IC50,Leishmania major [8],< 100 µM
same,times more effective than glucantime at blocking Leishmania major growth,Leishmania major [3],6.7 times
same,Half-life,physchem,39 min
same,anti-malarial effectiveness,Plasmodium falciparum,effective
same,IC50,[4],5.65 µg/mL
same,IC90,[4],10 µg/mL
same,IC50,[5],5.31 µg/mL
same,IC90,[5],9.53 µg/mL
same,NO2 --(nmol/ml),macrophages,1 ± 1 nmol/mL
CCN(CC)[N+]([O-])=NOC [M-DEA/NO],Half-life,[1]; [12],stable
same,Initial Abs.,[9],3.454
same,24-hour Abs.,[9],3.020
same,degraded at 24 h,[9],14%
COCON=[N+]([O-])NC(C)C [MOM-IPA/NO],Half-life,[1]; [12],stable
same,Initial Abs.,[9],3.530
same,24-hour Abs.,[9],3.340
same,degraded at 24 h,[9],5%
CCON=[N+]([O-])N(CC)CC [E-DEA/NO],Half-life,[1]; [12],stable
O=[N+]([O-])OCC(CO[N+](=O)[O-])O[N+](=O)[O-] [glyceryl trinitrate],tolerance / toxicity,[10],development of tolerance
CC(=O)N[C@H](C(=O)O)C(C)(C)SN=O (racemic) [S-nitroso-N-acetylpenicillamine],inhibition of DNA synthesis,DNA synthesis,effective at inhibiting DNA synthesis
CCN(CC)[N+]([O-])=NOCCBr [BE-DEA/NO],Half-life,[1]; [12],stable
CCN(CC)[N+]([O-])=NOS(=O)(=O)N(C)C [S-DEA/NO],Half-life,[1]; pH 7.4,30 min
CON=[N+]([O-])NC(C)C [M-IPA/NO],Half-life,[1]; [12],stable
nitric oxide,inhibition of DNA synthesis and mitochondrial respiration,tumor cells,inhibit DNA synthesis and mitochondrial respiration of tumor cells in vitro
same,killing of intracellular pathogens,[11],kills intracellular pathogens such as Mycobacterium tuberculosis
